Molecules are shown by their SMILES.

These results are taken from patent publication US20130344008A1, “NONCARIOUS MATERIAL AND ANTICARIOUS AGENT CONTAINING RARE SUGAR” (priority 2006, published 2013).

In assay [1] the test system is S. mutans strain MT 8148 (JCM5175). In words: Example 2: bacterial growth (OD 660 nm) and pH of S. mutans culture in phenol red broth with 1% test substance. It is filed as cell-based, Streptococcus mutans. Particulars: PRB broth, 37° C., 48 hours later; for OD: bacterial growth, absorbance at 660 nm. On the procedure:
D-Psicose and L-psicose were used to assay the actions thereof against S. mutans. D-Psicose and L-psicose were supplied from the Rare Sugar Research Center, the National University Corporation Kagawa University. The S. mutans strain MT 8148 (JCM5175) was plated in a Brain Heart Infusion broth supplemented with agar for culturing at 37° C. for 48 hours. The liquid culture was inoculated in a fresh Brain Heart Infusion broth, for culturing at 37° C. for 24 hours. The liquid culture was inoculated in a phenol red broth (PRB broth) containing a test substance at 1%, for culturing at 37° C.; the bacterial growth (absorbance at 660 nm: OD) and the pH were assayed 48 hours later. Asa control, glucose, fructose, sucrose and Xylitol were used. After culturing for a given period of time, additionally, the optical density of apart of the liquid culture was measured with an absorptiometer (OD 660 nm).

In assay [2] the test system is S. mutans strain JCM5075. In words: Example 1: optical density and pH of S. mutans JCM5075 cultures in BHI broth with rare sugars, with or without sucrose. It is filed as cell-based, Streptococcus mutans. Particulars: for pH 0 hour later / pH 6 hours later / pH 8 hours later / pH 12 hours later / pH 24 hours later / Optical density (OD) 12 hours later / suppression of OD increase compared with no addition: BHI broth; for Optical density (OD) 12 hours later: OD600; for suppression of the pH reduction: also with 1% sucrose addition; for suppression of the pH reduction / pH change 24 hours later (in words): FIG. 3; for suppression of OD increase compared with no addition: FIG. 2 / Table 1; for pH change 24 hours later (in words): 1% sucrose, or 10% Xylitol+1% sucrose, or 10% fructose+1% sucrose. The text has this: S. mutans strains characteristically form insoluble glucan on addition of sucrose, to generate acids and reduce the pH of the culture medium, which is considered to cause decalcification of teeth on dental surface to form decayed teeth (the reason why the strains are designated bacteria causing decayed teeth). JCM 5075 of S. mutans strains and the Brain Heart Infusion (BHI) broth were used to assay the optical density (the increase of the number of the bacterial cells) and the pH change in individual rare sugar solutions with or without sucrose added. As the rare sugars, there were used D-fructose, L-fructose, D-sorbose, L-sorbose, D-psicose, L-psicose, D-tagatose and L-tagatose. The rare sugars used were supplied from the Rare Sugar Research Center, the National University Corporation Kagawa University.
The strain JCM5075 thawed from −80° C. stock was cultured for 48 hours, and was adjusted to OD 0.3. 100 μl of the resulting culture was added to each 2-ml portion of the BHI broths under individual conditions, to assay the optical density and the pH 24 hours later (observation with naked eyes and absorbance: OD600).
After collecting a part of the liquid culture and centrifuging the culture, the pH of the resulting supernatant was measured with a pH meter. The results are shown in Table 2 (0, 6, 8, 12 and 24 hours after the addition of the bacteria to the BHI broth) and FIG. 3.

The subject of assay [3] is S. mutans strain MT 8148 (JCM5175). In words: Example 4: cariostatic test with D-psicose and catechin, pH of culture in PRB broth. The format is cell-based, Streptococcus mutans. Particulars: for pH: PRB broth, 20 hours later. On the procedure: A cariostatic test with D-psicose was carried out. Additionally, the effect of catechins added was also examined. D-Psicose was supplied from the Rare Sugar Research Center, the National University Corporation Kagawa University. As the catechin, Polyphenon 70A of Mitsui Norin Co., Ltd. was used. The S. mutans strain MT 8148 (JCM5175) was plated in a Brain Heart Infusion broth supplemented with agar, for culturing at 37° C. for 48 hours. Further, the resulting liquid culture was inoculated in a fresh Brain Heart Infusion broth, for culturing at 37° C. for 24 hours. The liquid preculture was inoculated in a phenol red broth (PRB broth) containing sugars and catechins at the following concentrations for culturing at 37° C.; 20 hours later, the pH was measured. As a control, sucrose was used.

Assay [4] has as its system S. mutans strain (JCM5075). In words: Example 3: pH of S. mutans culture in BHI broth with test substance after 48-hour culturing. The format is cell-based, Streptococcus mutans. The note with it: for pH: BHI broth, after 48-hour culturing. On the procedure:
Allitol and D-sorbose were used to assay the actions thereof against S. mutans. Allitol and D-sorbose were supplied from the Rare Sugar Research Center, the National University Corporation Kagawa University. The S. mutans strain (JCM5075) was plated in a Brain Heart Infusion broth containing a 10% test substance, to measure the pH of the liquid culture after 48-hour culturing. As a control, 1% sucrose and 10% Xylitol were used.

The test system of assay [5] is caries. The note with it: cited from earlier work.
Assay [6] deals with S. mutans strain JCM5075. In words: Reference Example: formation of insoluble glucan with S. mutans, naked-eye observation. It is filed as cell-based, Streptococcus mutans. Particulars: sucrose added, BHI broth, anaerobic conditions, FIG. 1. On the procedure: S. mutans strains characteristically form insoluble glucan on addition of sucrose, to reduce the pH of the culture medium, which is considered to cause decalcification of dental surface to form decayed teeth (the reason why the strains are designated bacteria causing decayed teeth). The S. mutans strain JCM5075 was plated in a Brain Heart Infusion (BHI) broth, for culturing under anaerobic conditions, to visually determine the bacterial growth (potency for forming insoluble glucan: optical density) with naked eyes.

[7] abbreviates: 10% test substance + 1% sucrose.

Consider `O=C(CO)[C@H](O)[C@H](O)[C@H](O)CO` [D-psicose], for which, in assay [1], the pH is 5.9 and the OD is listed as 0.02. In assay [2] (5% test substance + 1% sucrose), the “pH 0 hour later” value is 7.4, the “pH 6 hours later” value was found to be 7.3, the “pH 8 hours later” value is on record as 7.2 and the “pH 12 hours later” value is 7.2. In addition, the “pH 24 hours later” value in assay [2] (5% test substance + 1% sucrose) turned out to be 6.4. In addition, in assay [2] (5% test substance, no sucrose), the “pH 0 hour later” value is listed as 7.4, the “pH 6 hours later” value is given as 7.3, the “pH 8 hours later” value is 7.2 and the “pH 12 hours later” value came out at 7.2. The “pH 24 hours later” value in assay [2] (5% test substance, no sucrose) came to 7.0. In addition, in assay [2] (setting [7]), the “pH 0 hour later” value was 7.3, the “pH 6 hours later” value stood at 7.2, the “pH 8 hours later” value is 7.2 and the “pH 12 hours later” value was 7.2. Further, the “pH 24 hours later” value in assay [2] (setting [7]) is given as 7.1. Also, in assay [2] (10% test substance), the “Optical density (OD) 12 hours later” value is 0.158. Also, in assay [2] (10% test substance, no sucrose), the “pH 0 hour later” value came out at 7.3, the “pH 6 hours later” value came to 7.2, the “pH 8 hours later” value turned out to be 7.2 and the “pH 12 hours later” value came out at 7.2. Also, in assay [2] (10% test substance, no sucrose), the “pH 24 hours later” value turned out to be 7.2. For the same compound, the “suppression of the pH reduction” value in assay [2] (24 hours later) is “most highly suppressed the pH reduction”. The “suppression of OD increase compared with no addition” value in assay [2] is recorded as “suppression of OD increase was observed”. The pH in assay [3] (3.3% test substance + 0.25% sucrose) was found to be 4.4. The pH in assay [3] (5.0% test substance + 0.25% sucrose) is given as 5.5. For the same compound, the “action of suppressing the pH reduction in a culture medium with addition of sucrose” value in assay [3] (D-psicose at a concentration of 5%, 0.25% sucrose) is recorded as “exerted an action of suppressing the pH reduction”.

Take `O=C(CO)[C@H](O)[C@@H](O)[C@H](O)CO` [D-sorbose]: the “assimilability with the S. mutans strain” value in assay [4] (10% test substance, 48-hour culturing) was “low assimilability”. For the same compound, the pH in assay [4] (10% test substance) came to 5.0. In assay [2] (5% test substance + 1% sucrose), the “pH 0 hour later” value is listed as 7.3, the “pH 6 hours later” value amounted to 7.2, the “pH 8 hours later” value worked out at 7.2 and the “pH 12 hours later” value is given as 7.2. Moreover, in assay [2] (5% test substance + 1% sucrose), the “pH 24 hours later” value is reported as 5.0. Moreover, in assay [2] (5% test substance, no sucrose), the “pH 0 hour later” value came out at 7.4, the “pH 6 hours later” value was found to be 7.2, the “pH 8 hours later” value was found to be 7.2 and the “pH 12 hours later” value turned out to be 7.2. For the same compound, in assay [2] (5% test substance, no sucrose), the “pH 24 hours later” value came to 5.5. Also, in assay [2] (setting [7]), the “pH 0 hour later” value is 7.3, the “pH 6 hours later” value turned out to be 7.2, the “pH 8 hours later” value came out at 7.2 and the “pH 12 hours later” value was determined as 7.2. Besides, the “pH 24 hours later” value in assay [2] (setting [7]) was 6.9. Moreover, in assay [2] (10% test substance), the “Optical density (OD) 12 hours later” value is on record as 0.102. In addition, in assay [2] (10% test substance, no sucrose), the “pH 0 hour later” value amounted to 7.3, the “pH 6 hours later” value is reported as 7.2, the “pH 8 hours later” value is given as 7.2 and the “pH 12 hours later” value came out at 7.2. In addition, the “pH 24 hours later” value in assay [2] (10% test substance, no sucrose) is reported as 6.9. Moreover, the “suppression of the pH reduction” value in assay [2] (24 hours later) is on record as “pH reduction was suppressed”. Moreover, the “suppression of OD increase compared with no addition” value in assay [2] was “suppression of OD increase was observed”.

In assay [4] (10% test substance), `OC[C@@H](O)[C@H](O)[C@@H](O)CO` [Xylitol, reference compound] showed a pH of 6.0. Further, the “pH change 24 hours later (in words)” value in assay [2] is on record as “highly inclined to acidity”. In addition, in assay [2] (5% test substance + 1% sucrose), the “pH 0 hour later” value came to 7.3, the “pH 6 hours later” value was determined as 7.2, the “pH 8 hours later” value is 7.2 and the “pH 12 hours later” value turned out to be 7.1. The “pH 24 hours later” value in assay [2] (5% test substance + 1% sucrose) is recorded as 4.9. Further, in assay [2] (5% test substance, no sucrose), the “pH 0 hour later” value is on record as 7.3, the “pH 6 hours later” value stood at 7.2, the “pH 8 hours later” value came to 7.2 and the “pH 12 hours later” value is reported as 7.2. Besides, the “pH 24 hours later” value in assay [2] (5% test substance, no sucrose) is listed as 6.4. Further, in assay [2] (setting [7]), the “pH 0 hour later” value stood at 7.3, the “pH 6 hours later” value was 7.2, the “pH 8 hours later” value is recorded as 7.2 and the “pH 12 hours later” value amounted to 7.2. Moreover, the “pH 24 hours later” value in assay [2] (setting [7]) was 5.1. Also, in assay [2] (10% test substance), the “Optical density (OD) 12 hours later” value was 0.046. Further, in assay [2] (10% test substance, no sucrose), the “pH 0 hour later” value amounted to 7.4, the “pH 6 hours later” value is reported as 7.2, the “pH 8 hours later” value was found to be 7.2 and the “pH 12 hours later” value was 7.2. Further, the “pH 24 hours later” value in assay [2] (10% test substance, no sucrose) was 6.5.

Take `Oc1cc(O)c2c(c1)O[C@H](c1cc(O)c(O)c(O)c1)[C@@H](O)C2` [gallocatechin]: in assay [5], the “effective concentration against caries in the test system” value is 125 µg/mL.

Consider `OC[C@H]1O[C@@](CO)(O[C@H]2O[C@H](CO)[C@@H](O)[C@H](O)[C@H]2O)[C@@H](O)[C@@H]1O` [sucrose, reference compound], for which the “formation of insoluble glucan observed with naked eyes” value in assay [6] is listed as “formed insoluble glucan”. In assay [1], this compound returned a pH of 3.9 and an OD of 0.14. Further, the pH in assay [4] (1% sucrose (control)) was 4.0. Further, in assay [2] (1% sucrose alone), the “pH 0 hour later” value was 7.4, the “pH 6 hours later” value turned out to be 7.2, the “pH 8 hours later” value came to 7.2 and the “pH 12 hours later” value is listed as 6.7. Also, the “pH 24 hours later” value in assay [2] (1% sucrose alone) is 4.7. Besides, the “pH change 24 hours later (in words)” value in assay [2] was “highly inclined to acidity”. For the same compound, in assay [2] (1% test substance), the “Optical density (OD) 12 hours later” value is given as 0.060. The “precipitation of bacterial masses (insoluble glucan) under observation with naked eyes” value in assay [2] (addition of 1% sucrose, addition of 10% D-fructose, 24 hours later) is reported as “caused the precipitation of bacterial masses (insoluble glucan)”. In assay [3] (0.25% sucrose alone, 37° C.), this compound registered a pH of 4.5.
